# Test results published in patent publication US20110053770A1, “SUBSTITUTED AMINOTHIAZOLES AND THEIR USE AS FUNGICIDES” (BAYER CROPSCIENCE AG, priority 2009, published 2011).
# Read-outs that look alike come from different tables or passages of the source. Marks after values point to notes of the source that are not given here.
# Experiment: logP by HPLC on reversed-phase columns (C 18), EEC directive 79/831 Annex V.A8
# Format: physicochemical
# Conditions: for chromatographic logP: reversed-phase HPLC column (C 18)
# Protocol: Calibration was carried out using unbranched alkan-2-ones (having from 3 to 16 carbon atoms) with known logP values (the logP values were determined by the retention times using linear interpolation between two successive alkanones).
# [1] = LC-MS, acidic range, pH 2.7, 0.1% aqueous formic acid and acetonitrile
# [2] = LC-MS, neutral range, pH 7.8, 0.001 molar aqueous ammonium bicarbonate and acetonitrile
# [3] = acidic range, pH 2.3, 0.1% aqueous phosphoric acid and acetonitrile
log P (**) [1],log P (***) [2],log P (*) [3],SMILES,further results
1.57,3.22,1.57,"Fc1cc(F)cc(-c2csc(N=C3CCCCN3)n2)c1 [compound 29, 4-(3,5-difluorophenyl)-N-[(2E/Z)-piperidin-2-ylidene]-1,3-thiazole-2-amine]",
1.37**,,,"Clc1cccc(-c2csc(N=C3CCCCN3)n2)c1 [compound 59, 4-(3-chlorophenyl)-N-[(2E/Z)-piperidin-2-ylidene]-1,3-thiazole-2-amine]",
1.8**,,,"Clc1ccc(-c2csc(N=C3CCCCN3)n2)c(Cl)c1 [compound 4, 4-(2,4-dichlorophenyl)-N-[(2E/Z)-piperidin-2-ylidene]-1,3-thiazole-2-amine]",
,2.38,0.94,"Clc1ccc(-c2csc(N=C3CCCCN3)n2)cn1 [compound 63, 4-(6-chloropyridin-3-yl)-N-[(2E/Z)-piperidin-2-ylidene]-1,3-thiazole-2-amine]",
,2.13,0.29,"Cc1cccc(-c2csc(N=C3CCCCN3)n2)n1 [compound 62, 4-(6-methylpyridin-2-yl)-N-[(2E/Z)-piperidin-2-ylidene]-1,3-thiazole-2-amine]",
1.76,3.25,1.76,"FC(F)(F)c1ccccc1-c1csc(N=C2CCCCN2)n1 [compound 21, N-[(2E/Z)-piperidin-2-ylidene]-4-[2-(trifluoromethyl)phenyl]-1,3-thiazole-2-amine]",
1.84,3.78,1.84,"Fc1c(-c2csc(N=C3CCCCN3)n2)cccc1C(F)(F)F [compound 26, 4-[2-fluoro-3-(trifluoromethyl)phenyl]-N-[(2E/Z)-piperidin-2-ylidene]-1,3-thiazole-2-amine]",
,,1.39*,"Clc1ccccc1Cc1csc(N=C2CCCCN2)n1 [compound 69, 4-(2-chlorobenzyl)-N-[(2E/Z)-piperidin-2-ylidene]-1,3-thiazole-2-amine]",
1.68,3.47,1.68,"Clc1ccc(-c2csc(N=C3CCCCN3)n2)cc1 [compound 103, 4-(4-chlorophenyl)-N-[(2E/Z)-piperidin-2-ylidene]-1,3-thiazole-2-amine]",
2**,,,"Cc1cccc(-c2ccccc2-c2csc(N=C3CCCCN3)n2)c1 [compound 65, 4-(3′-methylbiphenyl-2-yl)-N-[(2E/Z)-piperidin-2-ylidene]-1,3-thiazole-2-amine]",
,,2.03*,"Clc1ccc(Oc2ccccc2-c2csc(N=C3CCCCN3)n2)cc1 [compound 74, 4-[2-(4-chlorophenoxy)phenyl]-N-[(2E/Z)-piperidin-2-ylidene]-1,3-thiazole-2-amine]",
,4.21,1.59,"Clc1cc(Cl)cc(-c2csc(N=C3CCCCN3)n2)c1 [compound 55, 4-(3,5-dichlorophenyl)-N-[(2E/Z)-piperidin-2-ylidene]-1,3-thiazole-2-amine]",
2.49,4.43,2.49,"Clc1ccc(Oc2ccccc2-c2csc(N=C3CCCN3)n2)c(Cl)c1 [compound 99, 4-[2-(2,4-dichlorophenoxy)phenyl]-N-[(2E/Z)-pyrrolidin-2-ylidene]-1,3-thiazole-2-amine]",
,5.07,2.36,"Clc1ccc(Cc2ccccc2-c2csc(N=C3CCCCN3)n2)cc1Cl [compound 92, 4-[2-(3,4-dichloro-benzyl)phenyl]-N-[(2E/Z)-piperidin-2-ylidene]-1,3-thiazole-2-amine]",
1.76,3.45,1.76,"Fc1ccc(-c2csc(N=C3CCCCN3)n2)cc1Cl [compound 30, 4-(3-chloro-4-fluorophenyl)-N-[(2E/Z)-piperidin-2-ylidene]-1,3-thiazole-2-amine]",
,,1.23*,"Fc1ccc(-c2csc(N=C3CCCCN3)n2)cc1 [compound 54, 4-(4-fluorophenyl)-N-[(2E/Z)-piperidin-2-ylidene]-1,3-thiazole-2-amine]",
1.81,3.72,1.81,"Clc1cccc(-c2csc(N=C3CCCCN3)n2)c1Cl [compound 24, 4-(2,3-dichlorophenyl)-N-[(2E/Z)-piperidin-2-ylidene]-1,3-thiazole-2-amine]",

# Continued, compound first:
SMILES,log P (**) [1],log P (***) [2],log P (*) [3],further results
"FC(F)(F)c1cc(-c2csc(N=C3CCCCN3)n2)cc(C(F)(F)F)c1 [compound 6, 4-[3,5-bis(trifluoromethyl)phenyl]-N-[(2E/Z)-piperidin-2-ylidene]-1,3-thiazole-2-amine]",2.23,4.36,,
"FC(F)Oc1ccc(-c2csc(N=C3CCCCN3)n2)cc1 [compound 49, 4-[4-(difluoromethoxy)phenyl]-N-[(2E/Z)-piperidin-2-ylidene]-1,3-thiazole-2-amine]",1.44**,,,
"CC(=O)N1CCCCC1=Nc1nc(-c2cccc(F)c2F)c(C)s1 [compound 43, 1-[(2E/Z)-2-{[4-(2,3-difluorophenyl)-5-methyl-1,3-thiazol-2-yl]imino}piperidin-1-yl]ethanone]",3.37**; 3.37***; 3.37*,3.37**; 3.37***; 3.37*,3.37**; 3.37***; 3.37*,
"CC(=O)N1CCCCC1=Nc1nc(-c2ccc(Cl)cc2Cl)cs1 [compound 35, 1-[(2E/Z)-2-{[4-(2,4-dichlorophenyl)-1,3-thiazol-2-yl]imino}piperidin-1-yl]ethanone]",,,,"chromatographic logP (LC-MS, acidic range, pH 2.7, 0.1% aqueous formic acid and acetonitrile, read-out: log P (**)): 4.33; chromatographic logP (LC-MS, neutral range, pH 7.8, 0.001 molar aqueous ammonium bicarbonate and acetonitrile, read-out: log P (***)): 4.33; chromatographic logP (acidic range, pH 2.3, 0.1% aqueous phosphoric acid and acetonitrile, read-out: log P (*)): 4.33"
"Cc1ccc(Oc2ccccc2-c2csc(N=C3CCCCN3)n2)cc1 [compound 79, 4-[2-(4-methylphenoxy)phenyl]-N-[(2E/Z)-piperidin-2-ylidene]-1,3-thiazole-2-amine]",,4.51,2.17,
"Fc1cc(F)c(Oc2ccccc2-c2csc(N=C3CCCCN3)n2)c(F)c1 [compound 82, N-[(2E/Z)-piperidin-2-ylidene]-4-[2-(2,4,6-trifluorophenoxy)phenyl]-1,3-thiazole-2-amine]",,3.96,2.02,
"CC(c1ccccc1)c1csc(N=C2CCCCN2)n1 (stereo not shown) [compound 73, 4-(1-phenylethyl)-N-[(2E/Z)-piperidin-2-ylidene]-1,3-thiazole-2-amine]",,3.27,1.51,
"c1ccc(-c2ccccc2-c2csc(N=C3CCCCN3)n2)cc1 [compound 64, 4-(biphenyl-2-yl)-N-[(2E/Z)-piperidin-2-ylidene]-1,3-thiazole-2-amine]",1.82**,,,
"Fc1ccc(Oc2ccccc2-c2csc(N=C3CCCCN3)n2)cc1F [compound 78, 4-[2-(3,4-difluorophenoxy)phenyl]-N-[(2E/Z)-piperidin-2-ylidene]-1,3-thiazole-2-amine]",,4.18,1.83,
"c1sc(N=C2CCCCN2)nc1CC1CC1 [compound 72, 4-(cyclopropylmethyl)-N-[(2E/Z)-piperidin-2-ylidene]-1,3-thiazole-2-amine]",,2.73,1.07,
"c1ccc(Cc2ccccc2-c2csc(N=C3CCCCN3)n2)cc1 [compound 81, 4-(2-benzylphenyl)-N-[(2E/Z)-piperidin-2-ylidene]-1,3-thiazole-2-amine]",,2.02***,,
"COc1ccc(-c2ccccc2-c2csc(N=C3CCCCN3)n2)cc1 [compound 67, 4-(4′-methoxybiphenyl-2-yl)-N-[(2E/Z)-piperidin-2-ylidene]-1,3-thiazole-2-amine]",1.83**,,,
"c1ccc(Oc2ccccc2-c2csc(N=C3CCCCN3)n2)cc1 [compound 10, 4-(2-phenoxyphenyl)-N-[(2E/Z)-piperidin-2-ylidene]-1,3-thiazole-2-amine]",2.09,3.91,2.07,
"COc1ccc(-c2cccc(-c3csc(N=C4CCCCN4)n3)c2)cc1 [compound 68, 4-(4′-methoxybiphenyl-3-yl)-N-[(2E/Z)-piperidin-2-ylidene]-1,3-thiazole-2-amine]",,3.88,1.85,
"FC(F)(F)Oc1ccccc1-c1csc(N=C2CCCCN2)n1 [compound 15, N-[(2E/Z)-piperidin-2-ylidene]-4-[2-(trifluoromethoxy)phenyl]-1,3-thiazole-2-amine]",1.77,3.54,1.77,
"Fc1cccc(F)c1Oc1ccccc1-c1csc(N=C2CCCCN2)n1 [compound 76, 4-[2-(2,6-difluorophenoxy)phenyl]-N-[(2E/Z)-piperidin-2-ylidene]-1,3-thiazole-2-amine]",,3.78,1.8,
